In one assay the target is T1, HDAC 6 (Homo sapiens, UniProt Q9UBN7).
T1 sequence (Q9UBN7 1-1215): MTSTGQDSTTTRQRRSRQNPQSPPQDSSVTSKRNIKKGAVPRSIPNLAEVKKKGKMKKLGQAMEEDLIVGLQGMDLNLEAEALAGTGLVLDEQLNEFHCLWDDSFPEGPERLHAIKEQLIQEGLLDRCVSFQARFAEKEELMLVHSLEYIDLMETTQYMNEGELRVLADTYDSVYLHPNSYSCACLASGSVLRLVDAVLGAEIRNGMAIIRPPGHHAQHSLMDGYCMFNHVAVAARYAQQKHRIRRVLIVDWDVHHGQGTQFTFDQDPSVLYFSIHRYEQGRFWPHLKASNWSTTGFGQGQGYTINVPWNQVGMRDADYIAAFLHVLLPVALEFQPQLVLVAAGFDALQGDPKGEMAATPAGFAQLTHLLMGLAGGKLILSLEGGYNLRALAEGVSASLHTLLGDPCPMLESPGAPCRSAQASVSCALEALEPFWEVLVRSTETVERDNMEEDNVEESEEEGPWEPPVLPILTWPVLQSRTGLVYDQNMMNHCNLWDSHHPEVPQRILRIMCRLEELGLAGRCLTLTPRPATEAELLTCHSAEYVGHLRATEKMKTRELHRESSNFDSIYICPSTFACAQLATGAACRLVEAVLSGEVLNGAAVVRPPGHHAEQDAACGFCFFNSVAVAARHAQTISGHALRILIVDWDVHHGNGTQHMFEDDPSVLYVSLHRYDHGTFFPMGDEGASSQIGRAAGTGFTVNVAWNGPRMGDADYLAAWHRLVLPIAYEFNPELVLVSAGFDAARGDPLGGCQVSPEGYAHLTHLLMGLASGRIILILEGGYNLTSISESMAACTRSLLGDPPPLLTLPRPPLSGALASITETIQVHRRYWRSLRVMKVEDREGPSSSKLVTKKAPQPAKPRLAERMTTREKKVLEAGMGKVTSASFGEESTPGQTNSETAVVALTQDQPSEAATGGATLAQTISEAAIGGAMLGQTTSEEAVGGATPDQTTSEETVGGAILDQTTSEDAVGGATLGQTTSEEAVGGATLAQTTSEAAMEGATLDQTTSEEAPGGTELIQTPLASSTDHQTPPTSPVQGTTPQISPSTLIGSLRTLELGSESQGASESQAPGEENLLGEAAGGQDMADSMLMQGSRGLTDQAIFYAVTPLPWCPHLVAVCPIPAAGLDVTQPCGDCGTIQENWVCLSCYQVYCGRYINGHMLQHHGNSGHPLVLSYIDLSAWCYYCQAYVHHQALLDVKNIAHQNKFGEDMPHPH
Description: Test of HDAC activities, HDAC6 (fluorimetric). Type of assay: biochemical. The arrangement: purchased Calbiochem 382180. Particulars: samples at 0.1, 1, 10, 100, 1000 nM; 37° C. 60 minutes; fluorescence Ex 390, Em 460; read-out: HDAC inhibitory activities, HDAC6. The gist of the method: (§1)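 HDAC1 tested at 100, 1000 and 10000 nM; recombinant human HDAC6 at 0.1, 1, 10, 100 and 1000 nM. Reaction 60 min at 37° C, then developer for 30 min at 37° C; fluorescence read at Ex 390/Em 460.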

The target of the next assay is HDAC1 (Homo sapiens, UniProt Q13547). Nature of the assay: Test of HDAC activities, HDAC1 Fluorimetric Drug Discovery Assay Kit. Type of assay: biochemical. Set-up: purchased Enzolifesciences BML-AK511. Particulars: samples at 100, 1000, 10000 nM; 37° C. 60 minutes; fluorescence Ex 390, Em 460; read-out: HDAC inhibitory activities, HDAC1. The gist of the method:
as §1

HDAC1, sequence (Q13547 whole entry): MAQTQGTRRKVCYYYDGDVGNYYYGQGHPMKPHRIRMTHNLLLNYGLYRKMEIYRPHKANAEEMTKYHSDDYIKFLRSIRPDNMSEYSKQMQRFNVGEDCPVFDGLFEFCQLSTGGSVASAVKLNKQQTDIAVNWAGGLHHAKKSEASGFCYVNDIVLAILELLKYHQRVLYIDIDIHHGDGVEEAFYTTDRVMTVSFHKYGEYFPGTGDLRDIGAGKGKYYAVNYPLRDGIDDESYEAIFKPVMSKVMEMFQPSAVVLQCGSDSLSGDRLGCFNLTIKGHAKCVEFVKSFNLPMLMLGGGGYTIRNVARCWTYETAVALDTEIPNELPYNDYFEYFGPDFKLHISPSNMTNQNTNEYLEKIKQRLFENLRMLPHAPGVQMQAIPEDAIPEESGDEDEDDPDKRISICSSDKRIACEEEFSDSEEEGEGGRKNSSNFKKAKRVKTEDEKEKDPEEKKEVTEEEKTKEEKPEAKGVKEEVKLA

Take `O=C(NO)c1ccc(CN(C(=O)N2CC(F)(F)C2)c2ccc(C(F)(F)F)cc2)c(F)c1` [Compound 578, 3,3-difluoro-N-(2-fluoro-4-(hydroxycarbamoyl)benzyl)-N-(4-(trifluoromethyl)phenyl) azetidine-1-carboxamide]: the IC50 was determined as 9.3 nM at HDAC 6 and 1250 nM at HDAC1.
The like results for `O=C(NO)c1ccc(CN(C(=O)N2CCCOCC2)c2ccc(C(F)(F)F)cc2)cc1` [Compound 580, N-(4-(hydroxycarbamoyl)benzyl)-N-(4-(trifluoromethyl)phenyl)-1,4-oxazepane-4-carboxamide] were, in that order, 21 nM and 667 nM.
The like results for `O=C(NO)c1ccc(CN(C(=O)N2CCN(CC3(O)CCOCC3)CC2)c2cccc(C(F)(F)F)c2)cc1` [Compound 651, 4-((4-hydroxy-tetrahydro-2H-pyran-4-yl)methyl)-N-(4-(hydroxycarbamoyl)benzyl)-N-(3-(trifluoromethyl)phenyl)piperazine-1-carboxamide] were, in that order, 4.6 nM and 765 nM.
Regarding `O=C(NO)c1ccc(CN(C(=O)N2CCN(Cc3ccccc3)CC2)c2cccc(C(F)(F)F)c2)cc1` [Compound 683, 4-benzyl-N-(4-(hydroxycarbamoyl)benzyl)-N-(3-(trifluoromethyl)phenyl)piperazine-1-carboxamide], the IC50 at HDAC 6 worked out at 1.4 nM; at HDAC1 it was 545 nM.
Consider `COc1cccc(N2CCN(C(=O)N(Cc3ccc(C(=O)NO)cc3)c3cccc(C(F)(F)F)c3)CC2)c1` [Compound 684, N-(4-(hydroxycarbamoyl)benzyl)-4-(3-methoxyphenyl)-N-(3-(trifluoromethyl)phenyl)piperazine-1-carboxamide], for which the IC50 at HDAC 6 is 19 nM; at HDAC1, 4980 nM.
The like results for `O=C(NO)c1ccc(CN(C(=O)N2CCN(CC3(F)CCOCC3)CC2)c2cccc(C(F)(F)F)c2)cc1` [Compound 716, 4-((4-fluorotetrahydro-2H-pyran-4-yl)methyl)-N-(4-(hydroxycarbamoyl)benzyl)-N-(3-(trifluoromethyl)phenyl)piperazine-1-carboxamide] were, in that order, 6.4 nM and 727 nM.
The like results for `O=C(NO)c1ccc(CN(C(=O)N2CCN(c3ccccc3)CC2)c2cccc(C(F)(F)F)c2)cc1` [Compound 717, N-(4-(hydroxycarbamoyl)benzyl)-4-phenyl-N-(3-(trifluoromethyl)phenyl)piperazine-1-carboxamide] were, in that order, 24 nM and 2370 nM.
The like results for `O=C(NO)c1ccc(CN(C(=O)N2CCN(C(c3ccccc3)c3ccccc3)CC2)c2cccc(C(F)(F)F)c2)cc1` [Compound 718, 4-benzhydryl-N-(4-(hydroxycarbamoyl)benzyl)-N-(3-(trifluoromethyl)phenyl)piperazine-1-carboxamide] were, in that order, 405 nM and 8540 nM.
As to `CCN1CCN(C(=O)N(Cc2ccc(C(=O)NO)cc2)c2cccc(CF)c2)CC1` [Compound 765, 4-ethyl-N-(3-(fluoromethyl)phenyl)-N-(4-(hydroxycarbamoyl)benzyl)piperazine-1-carboxamide], the IC50 worked out at 1.8 nM on HDAC 6 and 433 nM at HDAC1.
`CC(C)(F)CN1CCN(C(=O)N(Cc2ccc(C(=O)NO)cc2)c2cccc(CF)c2)CC1` [Compound 766, 4-(2-fluoro-2-methylpropyl)-N-(3-(fluoromethyl)phenyl)-N-(4-(hydroxycarbamoyl)benzyl)piperazine-1-carboxamide]: the IC50 at HDAC 6 was 3 nM; on HDAC1, 838 nM.
The like results for `O=C(NO)c1ccc(CN(C(=O)N2CCOCC2)c2ccccc2OC(F)(F)F)cc1` [Compound 771, N-(4-(hydroxycarbamoyl)benzyl)-N-(2-(trifluoromethoxy)phenyl)morpholine-4-carboxamide] were, in that order, 64.5 nM and more than 10000 nM.
Consider `O=C(NO)c1ccc(CN(C(=O)N2CCOCC2)c2ccc(OC(F)(F)F)cc2)cc1` [Compound 772, N-(4-(hydroxycarbamoyl)benzyl)-N-(4-(trifluoromethoxy)phenyl)morpholine-4-carboxamide], for which the results for the IC50 at HDAC 6 and at HDAC1 were 2.5 nM and 349 nM, respectively.
In the case of `O=C(NO)c1ccc(CN(C(=O)N2CCOCC2)c2cccc(OC(F)(F)F)c2)cc1` [Compound 773, N-(4-(hydroxycarbamoyl)benzyl)-N-(3-(trifluoromethoxy)phenyl)morpholine-4-carboxamide], the IC50 was 2.8 nM on HDAC 6 and 312 nM on HDAC1.
Regarding `COc1ccc(C(F)(F)F)cc1N(Cc1ccc(C(=O)NO)cc1)C(=O)N1CCOCC1` [Compound 774, N-(4-(hydroxycarbamoyl)benzyl)-N-(2-methoxy-5-(trifluoromethyl)phenyl)morpholine-4-carboxamide], the IC50 on HDAC 6 turned out to be 119 nM; on HDAC1, 12300 nM.
Take `O=C(NO)c1ccc(CN(C(=O)N2CCOCC2)c2cc(C(F)(F)F)ccc2Cl)cc1` [Compound 776, N-(2-chloro-5-(trifluoromethyl)phenyl)-N-(4-(hydroxycarbamoyl)benzyl)morpholine-4-carboxamide]: the IC50 at HDAC 6 stood at 31.5 nM; on HDAC1 it was 1980 nM.
Take `O=C(NO)c1ccc(CN(C(=O)N2CCOCC2)c2cccc(C(F)(F)F)n2)cc1` [Compound 778, N-(4-(hydroxycarbamoyl)benzyl)-N-(6-(trifluoromethyl)pyridin-2-yl)morpholine-4-carboxamide]: the IC50 at HDAC 6 came to 11 nM; at HDAC1 it was 6430 nM.
The like results for `O=C(NO)c1ccc(CN(C(=O)N2CCOCC2)c2cccc(F)c2F)cc1` [Compound 791, N-(2,3-difluorophenyl)-N-(4-(hydroxycarbamoyl)benzyl)morpholine-4-carboxamide] were, in that order, 1.1 nM and 585 nM.
The like results for `CCN1[C@H](C)CN(C(=O)N(Cc2ccc(C(=O)NO)cc2)c2cccc(C(F)(F)F)c2)C[C@@H]1C` [Compound 797, (3S,5R)-4-ethyl-N-(4-(hydroxycarbamoyl)benzyl)-3,5-dimethyl-N-(3-(trifluoromethyl)phenyl)piperazine-1-carboxamide] were, in that order, 2 nM and 1600 nM.
As to `CC1CN(C(=O)N(Cc2ccc(C(=O)NO)cc2)c2cccc(OC(F)(F)F)c2)CC(C)O1` (stereo not shown) [Compound 800, N-(4-(hydroxycarbamoyl)benzyl)-2,6-dimethyl-N-(3-(trifluoromethoxy)phenyl)morpholine-4-carboxamide], the IC50 came out at 78 nM at HDAC 6 and 633 nM on HDAC1.
Turning to `CC1CN(C(=O)N(Cc2ccc(C(=O)NO)cc2)c2ccccc2OC(F)(F)F)CC(C)O1` (stereo not shown) [Compound 801, N-(4-(hydroxycarbamoyl)benzyl)-2,6-dimethyl-N-(2-(trifluoromethoxy)phenyl)morpholine-4-carboxamide], the IC50 was 59.7 nM at HDAC 6 and 14900 nM on HDAC1.
In the case of `C[C@@H]1CN(C(=O)N(Cc2ccc(C(=O)NO)cc2)c2cccc(C(F)(F)F)c2)C[C@H](C)N1Cc1ccccc1` [Compound 802, (3S,5R)-4-benzyl-N-(4-(hydroxycarbamoyl)benzyl)-3,5-dimethyl-N-(3-(trifluoromethyl)phenyl)piperazine-1-carboxamide], the results for the IC50 on HDAC 6 and at HDAC1 were 9.4 nM and 1600 nM, respectively.
Regarding `C[C@@H]1CN(C(=O)N(Cc2ccc(C(=O)NO)cc2)c2cccc(C(F)(F)F)c2)C[C@H](C)N1CC(F)(F)C(F)(F)F` [Compound 803, (3S,5R)—N-(4-(hydroxycarbamoyl)benzyl)-3,5-dimethyl-4-(2,2,3,3,3-pentafluoropropyl)-N-(3-(trifluoromethyl)phenyl)piperazine-1-carboxamide], the IC50 at HDAC 6 was 213 nM; on HDAC1, 5320 nM.
`CCN1CCN(C(=O)N(Cc2ccc(C(=O)NO)cc2)c2cccc(C(F)(F)F)n2)CC1` [Compound 826, 4-ethyl-N-(4-(hydroxycarbamoyl)benzyl)-N-(6-(trifluoromethyl)pyridin-2-yl)piperazine-1-carboxamide]: the results for the IC50 at HDAC 6 and on HDAC1 were 11.8 nM and 1850 nM, respectively.
